In US20080313748A1, “Transgenic Non-Human Animals Comprising the Human Udp-Glucuronosyltransferase 1A (Ugt1a) Gene Locus and Methods of Using Them” (priority 2004, published 2008):
“And” between values parts separate entries of the source, which are not always exact repeats. Equal values may be shown once. “Also recorded” adds a separate entry of the source. Read-outs that look alike come from different tables or passages of the source.

Tests used:
[1] = system: β-estradiol UGT activity; experiment: β-estradiol UGT activity in intestinal microsomes from PCN treated wild type mice; format: in vivo, mouse; conditions: WT mice
Protocol: (§1) Microsomal Protein Isolation from Transgenic Mouse Tissues.
(§2) Reactions were terminated by the addition of 100 μl of methanol followed by centrifugation at top speed for 15 minutes. A 100 μl sample of the quenched reaction was spotted onto pre-adsorbent area of the TLC plate and develop in n-butanol/acetone/acetic acid/water (35:35:10:20) to achieve separation. ^14C-Labeled glucuronides were visualized with a STORM 820™ PhosphorImager (Molecular Dynamics/Amersham Biosciences). Silica gel in regions corresponding to the glucuronide bands were then scraped from the TLC plates, radioactivity measured by liquid scintillation counting, and specific catalytic activities were calculated in picomoles of glucuronide formed/mg of protein/min.
(§3) Values are the mean±S.E.M from triplicate experiments.

[2] = system: mouse Cyp3a11; experiment: Cyp3a11 RT-PCR in primary hepatocytes from Tg-UGT1c mice; conditions: primary hepatocytes treated with PCN
[3] = system: human UGT1A4; conditions: for UGT1A4 protein induction: small and large intestine
Description: (§4) Microsomal Protein Isolation from Transgenic Mouse Tissues. Using three animals per group, the liver, small and large intestinal tissues were collected from Tg-UGT1 and wild type mice. For the small and large intestine, the tissue was dissected open lengthwise and the luminal surface gently rinsed in 1.15% KCl before freezing on dry ice. Tissue samples from each treatment group were combined and frozen in liquid nitrogen in a porcelain mortar and pulverized under liquid nitrogen. A sample of the pulverized tissue was added to 5 volumes of 1.15% ice cold KCl and the tissue homogenized using a motorized glass-teflon homogenizer. The tissue homogenate was first centrifuged at 2,000×g for 10 min at 4° C. and the supernatant was collected. The supernatant was then centrifuged at 9,000×g for 10 min at 4° C. and this resulting supernatant centrifuged at 100,000×g for 60 min at 4° C. The pellet was resuspended in buffer (50 mM Tris-HCl pH 7.4, 10 mM MgCl2, 1 mM PMSF) and the protein concentration determined by the Bradford method.
(§5) Immunoblot Analysis. All Western blots were performed using NuPAGE Bis-Tris polyacrylamide gels as outlined by the supplier (Invitrogen, Carlsbad, Calif.). Protein was heated at 70° C. for 10 min in loading buffer and resolved in 4-12% Bis-Tris gels under denaturing conditions (50 mM MOPS, 50 mM Tris-base, pH 7.7, 0.1% SDS, 1 mM EDTA) prior to transferring the proteins to polyvinylidene difluoride membrane using a semidry transfer system (Norvex, England). The membrane was blocked with 5% nonfat dry milk in 10 mM Tris-HCl, pH7.4 containing 0.15 M NaCl and 0.05% Tween 20 (Tris-buffered saline) for 1 h at room temperature, followed by incubation with primary antibodies (mouse anti-human UGT1A1, UGT1A4 or UGT1A6) in Tris-buffered saline overnight at 4° C. Membranes were washed and exposed to horseradish peroxidase-conjugated secondary antibodies for 1 h at room temperature. Each membrane was again washed and the conjugated horseradish peroxidase was detected using the ECL plus Western blotting detection system (Amersham) and the proteins detected following exposure to X-ray film.
(§6) For both TCDD and PCN, the administration was by the intraperitoneal route, and each mouse was treated every 24 hours over a three day period. Tissues from three mice were then pooled and pulverized under liquid nitrogen, and samples used for microsomal preparation as well as for the isolation of total RNA.
(§7) Three Tg-UGT^1c or wild type (WT) mice were treated by intraperitoneal injection every 24 hours with either DMSO, TCDD (16 μg/kg) or PCN (10 mg/kg) for 3 days. After 72 hours, the small intestines from each treatment group were combined and the large intestines from each treatment group were combined and the tissues pulverized under liquid nitrogen. A sample of each tissue was then used to prepare microsomes or to isolate total RNA. FIG. 4A: Western blot analysis of small and large intestinal microsomal protein using UGT1A1-, UGT1A4- or UGT1A6 specific antibodies. Included as control is a sample of each protein generated from the expression of cDNAs in stably transfected HEK293 cells. FIG. 4B: RNA prepared from the same samples of tissue were used in RT-PCR studies and the isoform specific products identified in ethidium bromide stained agarose gels.
(§8) Induction of the UGT1 locus in liver by PCN and TCDD. […] Wild type and Tg-UGT^1c mice were treated every 24 hours with TCDD (16 μg/kg) or PCN (10 mg/kg) by intraperitoneal injection for 3 days, and the livers from three animals per group combined and used to prepare microsomes or to isolate total RNA.

[4] = system: human UGT1A1; conditions: for UGT1A1 protein induction: small and large intestinal microsomes, TCDD 16 μg/kg or PCN
Description: as §4, §5, §6, §7, §8

[5] = system: human UGT1A6; conditions: for UGT1A6 protein regulation: small and large intestine
Description: as §4, §5, §6, §7, §8

[6] = system: UGT1A gene transcripts (human UGT1 locus); experiment: Isoform-specific RT-PCR of UGT1A gene transcripts in tissues of treated Tg-UGT1c mice; format: in vivo, mouse; conditions: for UGT1A1 RNA induction / UGT1A4 RNA / UGT1A6 RNA induction / UGT1A gene transcript induction: RT-PCR; for UGT1A gene transcript induction: small and large intestine, i.p. 3 days
Protocol: Analysis of UGT1 gene expression patterns by reverse transcription-PCR: For RNA isolation from transgenic and wild type (WT) mouse tissues, the tissues from three animals were combined as described in the methods that outline the preparation of microsomal proteins. After pulverizing in liquid nitrogen, approximately 100 mg of tissue was homogenized in 1 ml of TRIzol™ solution, and the RNA extracted following the manufacturer's instructions. For each reverse transcription reaction, 2 μg of total RNA was denatured by heating and cDNA synthesized in 20 μl using the Omniscript RT™ kit (Qiagen) according to the manufacturer's instructions. From this reaction, 2 μl of the cDNA reaction was employed in each PCR reaction. Each PCR reaction contained 0.2 μM of mouse β-actin primers, 0.4 μM of each of the UGT1A specific oligonucleotide primer pair (11;15;50), and 15 μl HOTSTART MASTERMIX™ (Qiagen) in a 30 μl reaction. For UGT1A1, UGT1A3, UGT1A4, UGT1A5, UGT1A6, UGT1A7, UGT1A9 and UGT1A10 the polymerase was activated at 95° C. for 15 minutes followed by 30 cycles of 95° C. for 30 sec, 63° C. for 30 sec, and 72° C. for 45 sec, and a final extension at 72° C. for seven minutes. For UGT1A8 PCR amplification, the polymerase was activated at 95° C. for 15 min followed by 30 cycles of 95° C. for 30 sec, 58° C. for 30 sec, and 72° C. for 45 sec, and a final extension at 72° C. for seven minutes. Analysis of expressed RNA included an antisense oligonucleotide specific for the common region that encoded exon 2, while all of the sense primers encoded a highly specific segment of each exon 1 sequence that allowed for the unique identification of each UGT1A RNA. PCR reactions were carried out in a PerkinElmer Life Sciences GENEAMP™ DNA thermocycler PCR system. Ten microliters of each PCR product was resolved on a 1.5% agarose gel containing 1 μg/ml ethidium bromide and photographed using Polaroid 665 positive/negative film (Polaroid, Cambridge, Mass.).
as §6, §7
as §8, with “RNA. FIG. 6A: Samples of liver microsomal protein (10 μg) was separated by SDS-polyacrylamide gel electrophoresis, and immunoblot analysis performed using UGT1A1-, UGT1A4 or UGT1A6-antibodies. FIG. 6B: Total liver RNA (4 μg) was used in reverse transcription reactions followed by PCR analysis using isozyme-specific oligonucleotides.” for “RNA.”

[7] = system: UGT1A1
Protocol: as §5

[8] = system: β-estradiol UGT activity; experiment: β-estradiol UGT activity in intestinal microsomes from PCN and TCDD treated Tg-UGT1c mice; format: in vivo, mouse; conditions: for Induction of β-estradiol glucuronidation: large intestine microsomes, Tg-UGT1c mice
Protocol: as §1, §2, §3

[9] = system: mouse Cyp1a1; experiment: Cyp1a1 Western blot in primary hepatocytes from Tg-UGT1c mice; format: cell-based
Description: Isolation and treatment of mouse transgenic primary hepatocytes. […] Mice were anesthetized by isoflurane inhalation.
Control hepatocyte cultures contained only DMSO (D).

[10] = system: UGT1A gene transcripts (human UGT1 locus); experiment: Isoform-specific RT-PCR of UGT1A gene transcripts in tissues of treated Tg-UGT1c mice; format: in vivo, mouse; conditions: liver and small intestine, UGT1+/- mice treated with TCDD
[11] = Tg-UGT1c mice, i.p. every 24 h for 3 days
[12] = liver microsomes, Tg-UGT1c mice, i.p. every 24 h for 3 days

Row | Structure (SMILES) | UGT1A4 protein induction [3, 11] | UGT1A1 protein induction [4, 11] | UGT1A6 protein regulation [5, 11] | UGT1A1 RNA induction ([6]; liver, Tg-UGT1c mice) | UGT1A4 RNA ([6]; liver, Tg-UGT1c mice) | UGT1A6 RNA induction ([6]; liver, Tg-UGT1c mice) | Expression of UGT1A1, UGT1A3, UGT1A4, UGT1A6 and UGT1A9 gene transcripts ([6]; liver, Tg-UGT1c mice) | UGT1A gene transcript induction ([6]; Tg-UGT1c mice) | Induction of β-estradiol glucuronidation [8] | other results
1 | CC(=O)[C@H]1[C@H](C#N)C[C@H]2[C@@H]3CC=C4C[C@@H](O)CC[C@]4(C)[C@H]3CC[C@@]21C [PCN, Pregnenolone-16α-carbonitrile] | inducible in small and large intestine | inducible | predominantly regulated only in large intestine | significant induction | increase | induced | induce expression of each of these genes | induction of all of the UGT1A gene transcripts | induced β-estradiol glucuronidation significantly | Induction of β-estradiol glucuronidation ([1]; large intestine microsomes): induced β-estradiol glucuronidation significantly; Induction of UGT activity (β-estradiol) ([1]; small intestine microsomes): induced a minimal amount of UGT activity; Cyp3a11 mRNA induction [2]: induction; Microsomal UGT1A4 protein induction ([3]; mouse, in vivo, ip): induction; Microsomal UGT1A1 protein induction ([4]; mouse, in vivo, ip): induction; Microsomal UGT1A6 protein induction ([5]; mouse, in vivo, ip): induction; UGT1A1 induction, hepatocytes cultured in dexamethasone [7]: significant induction; β-estradiol glucuronidation activity, induced level over induced level in WT mice ([8]; small intestine microsomes, PCN treated Tg-UGT1c mice vs PCN treated WT mice): ~10 fold
2 | Clc1cc2c(cc1Cl)Oc1cc(Cl)c(Cl)cc1O2 [TCDD, 2,3,7,8-Tetrachlorodibenzo-p-dioxin] | inducible in small and large intestine | inducible | predominantly regulated only in large intestine | significant induction | increase | induced | induce expression of each of these genes | induction of all of the UGT1A gene transcripts | most significant induction | Microsomal UGT1A4 protein induction [3, 12]: induction; Microsomal UGT1A1 protein induction [4, 12]: induction; Microsomal UGT1A6 protein induction [5, 12]: induction; Mouse Cyp1a1 induction ([9]; TCDD 72 hours): induction; Synergistic induction of Cyp1a1 in presence of glucocorticoids ([9]; TCDD with 0.1 μM dexamethasone): did not observe a synergistic induction; UGT1A10 induction ([6]; liver, Tg-UGT1c mice): induce; also recorded: significantly induced; Regulation of UGT1A5, UGT1A7 and UGT1A8 ([6]; liver, Tg-UGT1 mice): not regulated; Expression of 1A1 and 1A6 [10]: elevated expression; UGT1A1 induction in presence of dexamethasone over the levels obtained only with TCDD treatment ([7]; primary hepatocytes cultured in 0.1 μM dexamethasone and treated with TCDD): 10 fold and > 10 fold; UGT1A1 induction ([7]; primary hepatocytes, compound alone, TCDD 10 nM 72 hours, PCN 10 μM, dexamethasone 0.1 μM): induction
